Reference: PubChem BioAssay AID1259407 (Chemical Carcinogenesis Research Information System (CCRIS), 2018)
Active and inactive are the calls of the source. The rule behind the calls is not given here.

Tested on: CCRIS mutagenicity, Ames/micronucleus/aberration tests
Test: CCRIS mutagenicity studies

Measured: mutagenic call

C#C[C@]1(O)CC[C@H]2[C@@H]3CCC4=CC(=O)CC[C@@H]4[C@H]3CC[C@@]21C
inactive: End Point: IN VITRO CHROMOSOMAL ABERRATIONS, Test System: HUMAN LYMPHOCYTES, Metabolic Activation: NONE inactive; negative | End Point: IN VITRO CHROMOSOMAL ABERRATIONS, Test System: HUMAN LYMPHOCYTES, Metabolic Activation: RAT, LIVER, S-9, PHENOBARBITONE inactive; negative | End Point: IN VIVO MICRONUCLEUS, Test System: HEPATOCYTES, Species: RAT, Strain/Sex: SPRAGUE-DAWLEY/FEMALE, Route: INTRAGASTRIC (GAVAGE) inactive; negative (nonstatistically significant increase) | Test System: AMES SALMONELLA TYPHIMURIUM, Strain/Indicator: TA98, Metabolic Activation: NONE inactive; negative | Test System: AMES SALMONELLA TYPHIMURIUM, Strain/Indicator: TA98, Metabolic Activation: NONE, Method: PREINCUBATION inactive; negative | Test System: AMES SALMONELLA TYPHIMURIUM, Strain/Indicator: TA98, Metabolic Activation: NONE, Method: STANDARD PLATE inactive; negative | Test System: AMES SALMONELLA TYPHIMURIUM, Strain/Indicator: TA98, Metabolic Activation: RAT, LIVER, S-9, AROCLOR 1254, Method: PREINCUBATION inactive; negative | Test System: AMES SALMONELLA TYPHIMURIUM, Strain/Indicator: TA98, Metabolic Activation: RAT, LIVER, S-9, AROCLOR 1254, Method: STANDARD PLATE inactive; negative | Test System: AMES SALMONELLA TYPHIMURIUM, Strain/Indicator: TA98, Metabolic Activation: S-9 inactive; negative | Test System: AMES SALMONELLA TYPHIMURIUM, Strain/Indicator: TA100, Metabolic Activation: NONE inactive; negative | Test System: AMES SALMONELLA TYPHIMURIUM, Strain/Indicator: TA100, Metabolic Activation: NONE, Method: PREINCUBATION inactive; negative | Test System: AMES SALMONELLA TYPHIMURIUM, Strain/Indicator: TA100, Metabolic Activation: NONE, Method: STANDARD PLATE inactive; negative | Test System: AMES SALMONELLA TYPHIMURIUM, Strain/Indicator: TA100, Metabolic Activation: RAT, LIVER, S-9, AROCLOR 1254, Method: PREINCUBATION inactive; negative | Test System: AMES SALMONELLA TYPHIMURIUM, Strain/Indicator: TA100, Metabolic Activation: RAT, LIVER, S-9, AROCLOR 1254, Method: STANDARD PLATE inactive; negative | Test System: AMES SALMONELLA TYPHIMURIUM, Strain/Indicator: TA100, Metabolic Activation: S-9 inactive; negative | Test System: AMES SALMONELLA TYPHIMURIUM, Strain/Indicator: TA1535, Metabolic Activation: NONE inactive; negative | Test System: AMES SALMONELLA TYPHIMURIUM, Strain/Indicator: TA1535, Metabolic Activation: NONE, Method: PREINCUBATION inactive; negative | Test System: AMES SALMONELLA TYPHIMURIUM, Strain/Indicator: TA1535, Metabolic Activation: NONE, Method: STANDARD PLATE inactive; negative | Test System: AMES SALMONELLA TYPHIMURIUM, Strain/Indicator: TA1535, Metabolic Activation: RAT, LIVER, S-9, AROCLOR 1254, Method: PREINCUBATION inactive; negative | Test System: AMES SALMONELLA TYPHIMURIUM, Strain/Indicator: TA1535, Metabolic Activation: RAT, LIVER, S-9, AROCLOR 1254, Method: STANDARD PLATE inactive; negative | Test System: AMES SALMONELLA TYPHIMURIUM, Strain/Indicator: TA1535, Metabolic Activation: S-9 inactive; negative | Test System: AMES SALMONELLA TYPHIMURIUM, Strain/Indicator: TA1537, Metabolic Activation: NONE inactive; negative | Test System: AMES SALMONELLA TYPHIMURIUM, Strain/Indicator: TA1537, Metabolic Activation: NONE, Method: PREINCUBATION inactive; negative | Test System: AMES SALMONELLA TYPHIMURIUM, Strain/Indicator: TA1537, Metabolic Activation: NONE, Method: STANDARD PLATE inactive; negative | Test System: AMES SALMONELLA TYPHIMURIUM, Strain/Indicator: TA1537, Metabolic Activation: RAT, LIVER, S-9, AROCLOR 1254, Method: PREINCUBATION inactive; negative | Test System: AMES SALMONELLA TYPHIMURIUM, Strain/Indicator: TA1537, Metabolic Activation: RAT, LIVER, S-9, AROCLOR 1254, Method: STANDARD PLATE inactive; negative | Test System: AMES SALMONELLA TYPHIMURIUM, Strain/Indicator: TA1537, Metabolic Activation: S-9 inactive; negative | Test System: AMES SALMONELLA TYPHIMURIUM, Strain/Indicator: TA1538, Metabolic Activation: NONE, Method: PREINCUBATION inactive; negative | Test System: AMES SALMONELLA TYPHIMURIUM, Strain/Indicator: TA1538, Metabolic Activation: NONE, Method: STANDARD PLATE inactive; negative | Test System: AMES SALMONELLA TYPHIMURIUM, Strain/Indicator: TA1538, Metabolic Activation: RAT, LIVER, S-9, AROCLOR 1254, Method: PREINCUBATION inactive; negative | Test System: AMES SALMONELLA TYPHIMURIUM, Strain/Indicator: TA1538, Metabolic Activation: RAT, LIVER, S-9, AROCLOR 1254, Method: STANDARD PLATE inactive; negative | Test System: E. COLI, Strain/Indicator: WP2 UVRA, Metabolic Activation: NONE inactive; negative | Test System: E. COLI, Strain/Indicator: WP2 UVRA, Metabolic Activation: S-9 inactive; negative
